{
  "source": "patent US9808536B2",
  "about": "“Hypericin albumin nanoparticle-Escherichia coli serum antibody complex and preperation method and application thereof” (LANZHOU INSTITUTE OF HUSBANDRY AND PHARMACEUTICAL SCIENCES …, priority 2015, dated 2017)",
  "key": {"[1]": {"system": "Staphylococcus aureus (S. aureus) C26112", "assay": "Minimal inhibitory concentration, double dilution method, Staphylococcus aureus", "details": "for minimal inhibitory concentration: Staphylococcus aureus, no growth on agar plate after 24 hours"}, "[2]": {"system": "Escherichia coli (E. coli) C4403", "assay": "Minimal inhibitory concentration, double dilution method, Escherichia coli", "details": "for minimal inhibitory concentration: Escherichia coli, no growth on agar plate after 24 hours"}, "Escherichia coli": {"system": "Escherichia coli", "assay": "Treatment of colibacillosis animal model (mice)", "details": "control groups, 30 mice; hypericin injection 1.0 mL/mouse intramuscular"}, "[3]": {"system": "pathogenic Escherichia coli", "assay": "Treatment of chicken colibacillosis (sick chickens)", "details": "2.00 mg/Kg intramuscular, 2 times/d, 1 d, 50 chickens"}, "[4]": {"details": "0.2 μg/ml, 24 hours, eye observation of turbidity"}, "[5]": {"details": "0.4 μg/ml, 24 hours, eye observation of turbidity"}, "[6]": {"details": "0.8 μg/ml, 24 hours, eye observation of turbidity"}, "[7]": {"details": "3.2 μg/ml, 24 hours, eye observation of turbidity"}, "[8]": {"details": "6.4 μg/ml, 24 hours, eye observation of turbidity"}, "[9]": {"details": "12.8 μg/ml, 24 hours, eye observation of turbidity"}, "[10]": {"details": "25.6 μg/ml, 24 hours, eye observation of turbidity"}},
  "data": [
    {"compound": "Cc1cc(O)c2c(=O)c3c(O)cc(O)c4c5c(O)cc(O)c6c(=O)c7c(O)cc(C)c8c1c2c(c34)c(c78)c65", "note": "[Hypericin, hypericin]", "values": [
      {"measurement": "bacterial growth in tube 8", "setting": "[1]; [4]", "value": "+"},
      {"measurement": "bacterial growth in tube 7", "setting": "[1]; [5]", "value": "+"},
      {"measurement": "bacterial growth in tube 6", "setting": "[1]; [6]", "value": "+"},
      {"measurement": "bacterial growth in tube 4", "setting": "[1]; [7]", "value": "−"},
      {"measurement": "bacterial growth in tube 3", "setting": "[1]; [8]", "value": "−"},
      {"measurement": "bacterial growth in tube 2", "setting": "[1]; [9]", "value": "−"},
      {"measurement": "bacterial growth in tube 1", "setting": "[1]; [10]", "value": "−"},
      {"measurement": "minimal inhibitory concentration", "setting": "[1]", "value": 0.8, "unit": "µg/mL"},
      {"measurement": "minimal inhibitory concentration", "setting": "[1]; listed as 2", "value": 6.4, "unit": "µg/mL"},
      {"measurement": "bacterial growth in tube 8", "setting": "[2]; [4]", "value": "+"},
      {"measurement": "bacterial growth in tube 7", "setting": "[2]; [5]", "value": "+"},
      {"measurement": "bacterial growth in tube 6", "setting": "[2]; [6]", "value": "+"},
      {"measurement": "bacterial growth in tube 4", "setting": "[2]; [7]", "value": "−"},
      {"measurement": "bacterial growth in tube 3", "setting": "[2]; [8]", "value": "−"},
      {"measurement": "bacterial growth in tube 2", "setting": "[2]; [9]", "value": "−"},
      {"measurement": "bacterial growth in tube 1", "setting": "[2]; [10]", "value": "−"},
      {"measurement": "minimal inhibitory concentration", "setting": "[2]", "value": 0.4, "unit": "µg/mL"},
      {"measurement": "minimal inhibitory concentration", "setting": "[2]; listed as 2", "value": 6.4, "unit": "µg/mL"},
      {"measurement": "Cure (number of mice)", "setting": "Escherichia coli", "value": 10},
      {"measurement": "Cure rate (%)", "setting": "Escherichia coli", "value": 33.3, "unit": "%"},
      {"measurement": "Effective (number of mice)", "setting": "Escherichia coli", "value": 27},
      {"measurement": "Effective rate (%)", "setting": "Escherichia coli", "value": 90, "unit": "%"},
      {"measurement": "Cure rate (%)", "setting": "[3]", "value": 70, "unit": "%"},
      {"measurement": "Effective rate (%)", "setting": "[3]", "value": 80, "unit": "%"},
      {"measurement": "Total amount of cured ones", "setting": "[3]", "value": 35},
      {"measurement": "Total amount of effective ones", "setting": "[3]", "value": 40},
      {"measurement": "Cure rate (%)", "setting": "[3]; listed as hypericin", "value": 80, "unit": "%"}
    ]}
  ]
}
